Measurements as given in patent US20110269716A1, “ANTIOXIDANT COMPOUNDS AND METHODS OF THEIR USE” (priority 2008, published 2011).

Legend:
[1] = test system: PC-3 cells; assay: Biostability: EPR of conditioned media after exposure to cells; assay type: in vitro ADME; settings: after 96 hours of exposure to PC-3 cells vs media without cells
Protocol: PC-3 cells were seeded in tissue culture flasks (surface area ˜80 cm2). The cells were allowed to attach overnight. Following this, the cells were then treated with the desired concentration of CTMIO or DCTEIO (Compound 1) or vehicle (DMSO alone) i.e. 12 mL of media containing different nitroxide or vehicle was added to each flask. 5 mL of conditioned media (i.e. treatment media that had been incubated with the cells) were removed at 24 h and 96 h. At the 96 h time point, cells in the tissue culture flask were ˜100% confluent (i.e. the surface of the flask was covered by a monolayer of cells). The conditioned media that was removed from the flasks was placed in a falcon and centrifuged at 4° C. to remove any cellular debris that might have been present. The supernatant was then transferred to a new tube and the lid parafilmed to make it as airtight as possible. The tubes of conditioned media were stored at −20° C. until Electron Paramagnetic Resonance (EPR) analysis. […] The samples were run at X-band on a Bruker ELEXSYS E 580 FT/CW X-Band spectrometer at room temperature.

[2] = Log P by shake flask method (octanol/water, UV/vis at 230 nm); assay type: physicochemical
Protocol: The solubility and permeability of CTMIO and DCTEIO (Compound 1) were assessed using the shake flask method and UV/vis spectroscopy to measure distribution of the solute as follows:
A sample of octanol containing DCTEIO (3.34 mg, 1 mM) was added to a separating funnel with 10 mL water. The separating funnel was shaken for 5 minutes and the mixture was allowed to separate for 16 hours. Each phase (0.5 mL) was diluted with 5 mL of like solvent, water phase diluted with water and n-octanol phase diluted with n-octanol. This protocol was repeated for CTMIO. The absorbance of each sample was measured by UV/vis spectroscopy at 230 nm. The Log P value was calculated by the following equation: […]

[3] = test system: cells affected with Ataxia Telangiectasia (A-T); settings: Hosokawa et al. 2004; cited from earlier work
[4] = test system: A-T cell line KT; assay: A-T cell survival assay (irradiated cells, Trypan blue count); assay type: cell-based, human; settings: 100 μM nitroxide, at least six hours before irradiation at 4 Gy, counted every 24 hours for 4 days
Protocol: Lymphoblastoid Cell Lines (LCL) of A-T cells and standard cells were used, which were incubated and cultured in the standard conditions. The cell lines of both A-T cells and standard cells were initially divided into four batches, the first batch was not irradiated and not exposed to nitroxide, second batch was irradiated in the absence of nitroxide, the third batch was not irradiated but was exposed to the nitroxide, and the last batch was irradiated in the presence of the nitroxide. All four aliquots were taken from the cultured medium and counted to ensure consistent numbers of cells were present in each aliquot used in the assay. In some experiments comparative experiments were performed with the known nitroxide antioxidant CTMIO. Cells that were treated by the nitroxide studied were exposed for at least six hours prior to the irradiation at the lethal dose of 4 Gy. After dilution, the final concentrations of the nitroxides were made to be 100 μM. Previous experiments have shown that nitroxides generally have minimal toxicity at the concentration of 100 μM, but to confirm this, cell growth was monitored in the presence of the nitroxides but without exposure to irradiation. From this it was evident that there was no significant cytotoxicity with any of the compounds studied.
The concentrations of the cell cultures were monitored every 24 hours after irradiation, for four days. This was conducted via a Trypan blue based assay using a bright-line hemacytometer and an optical microscope. Trypan blue solution enables the discrimination of live cells from dead cells, as the dye is completely absorbed by dead cells, but not by live cells. Under a bright-line hemacytometer, a glass slide specially designed to determine cell concentrations, the blue dead cells fade into the background, enabling the selective count of live cells under an optical microscope. […]
Cell survivability was determined by the ratio of cells irradiated to the cells without irradiation. […] Errors were calculated with 95% confidence intervals. […]

CC1(C)c2ccc(C(=O)O)cc2C(C)(C)N1[O] [CTMIO, 5-carboxy-1,1,3,3-tetramethyl-isoindolin-2-yloxyl, reference compound]
EPR signal strength of the nitroxide (metabolic conversion to the non-radical hydroxylamine) [1]: significant reduction in signal strength | Log P [2]: −0.47 | protective effect on radiation-induced oxidative stress [3]: protective effect

CCC1(CC)c2cc(C(=O)O)c(C(=O)O)cc2C(CC)(CC)N1[O] [Compound (1), 1,1,3,3-Tetraethyl-5,6-dicarboxylisondoline-2-yloxyl]
survival of KT cells in the presence of irradiation [4]: improves survival of KT cells | EPR signal strength of the nitroxide (metabolic conversion to the non-radical hydroxylamine) [1]: same signal strength | logP ([2]; n-octanol/water, shake flask, 1 mM): 0.57

CCC1(CC)c2cc(CO)c(CO)cc2C(CC)(CC)N1[O] [Compound (2), 5,6-Dihydroxymethyl-1,1,3,3-tetraethylisoindolin-2-yloxyl]
survival of KT cells in the presence of irradiation [4]: improves survival of KT cells

CCC1(CC)c2cc(CP(=O)(O)O)c(CP(=O)(O)O)cc2C(CC)(CC)N1[O] [Compound (3), 5,6-Bis(methylene)diphosphonic acid-1,1,3,3-tetraethylisoindolin-2-yloxyl]
survival of KT cells in the presence of irradiation [4]: improves survival of KT cells
